{
  "source": "patent US11052154B2",
  "about": "“Ras protein degradation inducing molecule and pharmaceutical composition” (Tokyo University of Science Foundation, priority 2016, dated 2021)",
  "key": {"wild-type K-Ras protein": {"biological_target": "T1, wild-type K-Ras protein (Homo sapiens, UniProt P01116)", "T1 construct": "expressed in transfected cells; host or cells: HeLa", "T1 sequence (P01116 1-188 isoform P01116-2)": "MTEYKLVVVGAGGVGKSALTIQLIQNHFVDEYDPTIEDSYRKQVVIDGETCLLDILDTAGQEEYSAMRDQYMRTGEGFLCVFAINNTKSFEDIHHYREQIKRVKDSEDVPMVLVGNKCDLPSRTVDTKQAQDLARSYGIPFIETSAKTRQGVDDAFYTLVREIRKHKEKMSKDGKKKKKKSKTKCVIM", "test": "Degradation (knockdown) of wild-type K-Ras protein forcibly expressed in HeLa cells, FACS analysis", "assay_type": "cell-based", "settings": "FIG. 1", "procedure": "In Example 2, degradation (knockdown) of a wild-type K-Ras protein forcibly expressed in HeLa cells (human cervical cancer cells) through TUS-007 was evaluated by FACS analysis. […] The full-length cDNA clone (Accession No. AK292510) of a human K-ras gene was purchased from Independent Administrative Institution, the National Institute of Technology and Evaluation. PCR amplification was performed using KOD-Plus-Neo (TOYOBO CO., LTD) as a PCR enzyme. The plasmid was introduced into HeLa cells to transiently overexpress a wild-type K-Ras protein (specifically, a fusion protein of a wild-type K-Ras protein and GFP via a HA tag) or a DsRed protein for comparison in the […] (Wako Pure Chemical Industries, Ltd.) as a transfection reagent was used to introduce the plasmid into HeLa cells by a routine procedure. […] Culture was performed for 40 hours after introduction of the plasmid, and then TUS-007 was added to HeLa cells as follows. […] A BD FACSCantoTM II (BD Biosciences) was used for flow cytometry, and the expression levels of GFP and the DsRed protein in the cells were quantified. […] The GFP/DsRed ratio per cell was computed using an analysis software FlowJoTM (TOMY Digital Biology Co., Ltd.), and degradation (knockdown) of the wild-type K-Ras protein by TUS-007 was determined from a shift in a graph."}, "[1]": {"biological_target": "T2, G12V mutant K-Ras protein (Homo sapiens, UniProt P01116, G12V)", "T2 construct": "expressed in transfected cells; host or cells: HeLa", "T2 sequence (P01116 1-188 isoform P01116-2 G12V)": "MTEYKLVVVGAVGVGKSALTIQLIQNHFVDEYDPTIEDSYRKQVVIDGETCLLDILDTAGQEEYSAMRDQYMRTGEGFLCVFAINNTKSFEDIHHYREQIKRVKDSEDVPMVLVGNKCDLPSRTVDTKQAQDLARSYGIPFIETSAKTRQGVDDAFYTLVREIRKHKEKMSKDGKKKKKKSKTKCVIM", "test": "Degradation (knockdown) of G12V mutant K-Ras protein forcibly expressed in HeLa cells, FACS analysis", "assay_type": "cell-based", "settings": "FIG. 3"}, "[2]": {"settings": "MLN2238 co-added, compared with TUS-007 alone"}},
  "data": [
    {"molecule": "CCC(C)[C@H](NC(=O)CCCCCCNC(=O)[C@H](CC(C)C)NC(=O)CNC(=O)c1cc(Cl)ccc1Cl)C(=O)Nc1ccc2[nH]c(Cc3c[nH]c4ccccc34)nc2c1", "note": "(stereo in doubt) [TUS-007]", "values": [
      {"measurement": "degradation (knockdown) of the wild-type K-Ras protein (shift of GFP/DsRed ratio graph)", "setting": "wild-type K-Ras protein; 24 hours after addition, vs control (DMSO)", "value": "degradation of the wild-type K-Ras protein was induced"},
      {"measurement": "degradation of the wild-type K-Ras protein when both TUS-007 and MLN2238 were added", "setting": "wild-type K-Ras protein; [2]", "value": "degradation of the wild-type K-Ras protein was inhibited"},
      {"measurement": "degradation of the G12V mutant K-Ras protein when both TUS-007 and MLN2238 were added", "setting": "[1]; [2]", "value": "G12D mutant and G12V mutant K-Ras protein degradation was inhibited"},
      {"measurement": "degradation (knockdown) of the G12V mutant K-Ras protein (shift of GFP/DsRed ratio graph)", "setting": "[1]; vs control (DMSO)", "value": "degradation of the G12D mutant and the G12V mutant K-Ras protein was induced"}
    ]}
  ]
}
